Laboratory results from patent US12240862B2, “Inhibitors of peptidylarginine deiminases” (Gilead Sciences, Inc., priority 2020, dated 2025).

Each molecule was assayed against T1, human PAD4 (Homo sapiens, UniProt Q9UM07) (assay: In vitro PAD4 BAEE biochemical assay). Details: human PAD4, BAEE substrate; 5 nM PAD4, 2 mM calcium chloride, 3 mM BAEE; geometric mean of multiple experiments.
T1 construct: human PAD4 (NM_012387), A2P663, was PCR amplified; His-SUMO (N, cleaved yes); made in house; host or cells: E. coli BL21(DE3)
Summary of the method: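 Ammonia generated from BAEE serves as the readout, measured by o-phthalaldehyde after EDTA termination. Final conditions: 5 nM human PAD4 (SUMO tag cleaved), 2 mM CaCl2, 3 mM BAEE, pH 7.6 MOPS buffer, 25 °C for 2 h following a 30-min compound preincubation.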

T1 sequence (Q9UM07 2-663): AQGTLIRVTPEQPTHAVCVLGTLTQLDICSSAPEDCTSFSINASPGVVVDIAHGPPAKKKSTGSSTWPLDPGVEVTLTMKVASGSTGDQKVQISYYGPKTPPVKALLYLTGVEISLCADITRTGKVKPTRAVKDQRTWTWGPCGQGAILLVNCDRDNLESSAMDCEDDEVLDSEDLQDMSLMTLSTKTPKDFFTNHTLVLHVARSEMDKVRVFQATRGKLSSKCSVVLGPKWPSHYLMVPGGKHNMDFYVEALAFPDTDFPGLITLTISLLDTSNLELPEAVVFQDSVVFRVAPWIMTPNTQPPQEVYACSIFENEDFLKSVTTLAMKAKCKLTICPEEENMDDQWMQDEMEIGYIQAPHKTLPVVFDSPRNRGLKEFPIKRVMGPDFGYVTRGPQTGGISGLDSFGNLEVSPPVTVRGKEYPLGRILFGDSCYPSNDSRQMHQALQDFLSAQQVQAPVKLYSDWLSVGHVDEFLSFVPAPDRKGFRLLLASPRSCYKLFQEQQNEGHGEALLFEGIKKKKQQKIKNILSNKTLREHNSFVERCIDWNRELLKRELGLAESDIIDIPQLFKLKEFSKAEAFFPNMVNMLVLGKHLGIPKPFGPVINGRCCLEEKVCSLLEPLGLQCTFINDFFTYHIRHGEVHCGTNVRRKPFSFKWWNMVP

SMILES | IC50 [nM]
CCc1ccc2cc(-c3nc4cc(C(=O)N5[C@H]6CC[C@@H]5[C@H](N)C6)cc(OC)n4c3C)n(C[C@@H]3C[C@@H]3C(F)(F)F)c2n1 [Example 501] | 827
CCc1ccc2cc(-c3nc4cc(C(=O)N5[C@H]6CC[C@@H]5[C@H](N)C6)cc(OC)n4c3C)[nH]c2n1 [Example 506, [(1~{R},2~{R},4~{S})-2-amino-7-azabicyclo [2.2.1]heptan-7-yl]-[2-(6-ethyl-1~{H}-pyrrolo[2,3-b]pyridin-2-yl)-5-methoxy-3-methylimidazo[1,2-a]pyridin-7-yl]methanone] | 42300
CCc1ccc2cc(-c3nc4cc(C(=O)N5[C@H]6CC[C@@H]5[C@H](N)C6)cc(OC)n4c3C)n(CCC(C)(C)C#N)c2n1 [Example 508, 4-[2-[7-[(1~{R},2~{R}, 4~{S})-2-amino-7-azabicyclo[2.2.1]heptane-7-carbonyl]-5-methoxy-3-methylimidazo[1,2-a]pyridin-2-yl]-6-ethylpyrrolo [2,3-b]pyridin-1-yl]-2,2-dimethylbutanenitrile] | 277
CCc1ccc2cc(-c3nc4cc(C(=O)N5[C@H]6CC[C@@H]5[C@H](N)C6)cc(OC)n4c3C)n(CC3CCCC3)c2n1 [Example 509, [(1~{R},2~{R},4~{S})-2-amino-7-azabicyclo [2.2.1]heptan-7-yl]-[2-[1-(cyclopentylmethyl)-6-ethylpyrrolo[2,3-b]pyridin-2-yl]-5-methoxy-3-methylimidazo[1,2-a]pyridin-7-yl]methanone] | 655
CCc1ccc2cc(-c3nc4cc(C(=O)N5[C@H]6CC[C@@H]5[C@H](N)C6)cc(OC)n4c3C)n(-c3nccs3)c2n1 [Example 510, [(1~{R},2~{R},4~{S})-2-amino-7-azabicyclo [2.2.1]heptan-7-yl]-[2-[6-ethyl-1-(1,3-thiazol-2-yl)pyrrolo[2,3-b]pyridin-2-yl]-5-methoxy-3-methylimidazo[1,2-a]pyridin-7-yl]methanone] | 17100
CCc1ccc2cc(-c3nc4cc(C(=O)N5[C@H]6CC[C@@H]5[C@H](N)C6)cc(OC)n4c3C)n(-c3cnc(C)s3)c2n1 [Example 511, [(1~{R},2~{R},4~{S})-2-amino-7-azabicyclo [2.2.1]heptan-7-yl]-[2-[6-ethyl-1-(2-methyl-1,3-thiazol-5-yl)pyrrolo [2,3-b]pyridin-2-yl]-5-methoxy-3-methylimidazo [1,2-a]pyridin-7-yl] methanone] | 4680
CCc1ccc2cc(-c3nc4cc(C(=O)N5[C@H]6CC[C@@H]5[C@H](N)C6)cc(OC)n4c3C)n(-c3ccccc3)c2n1 [Example 512, [(1~{R},2~{R},4~{S})-2-amino-7-azabicyclo [2.2.1]heptan-7-yl]-[2-(6-ethyl-1-phenylpyrrolo [2,3-b]pyridin-2-yl)-5-methoxy-3-methylimidazo [1,2-a]pyridin-7-yl]methanone] | 17700
COc1cc(C(=O)N2[C@H]3CC[C@@H]2[C@H](N)C3)cc2nc(-c3cc4ccc(C5CCCCN5C(=O)C(C)(C)C)nc4n3CC3CC3)c(C)n12 (stereo partly drawn) [Example 514, 1-(2-(2-(7-((1R,2R,4S)-2-amino-7-azabicyclo[2.2.1]heptane-7-carbonyl)-5-methoxy-3-methylimidazo[1,2-a]pyridin-2-yl)-1-(cyclopropylmethyl)-1H-pyrrolo[2,3-b]pyridin-6-yl)piperidin-1-yl)-2,2-dimethylpropan-1-one] | 741
COc1cc(C(=O)N2[C@H]3CC[C@@H]2[C@H](N)C3)cc2nc(-c3cc4ccc(C5CCCN(C(=O)C(C)(C)C)C5)nc4n3CC3CC3)c(C)n12 (stereo partly shown) [Example 517, 1-[3-[2-[7-[(1~{R},2~{R}, 4~{S})-2-amino-7-azabicyclo[2.2.1]heptane-7-carbonyl]-5-methoxy-3-methylimidazo[1,2-a]pyridin-2-yl]-1-(cyclopropylmethyl)pyrrolo[2,3-b]pyridin-6-yl]piperidin-1-yl]-2,2-dimethylpropan-1-one] | 618
COc1cc(C(=O)N2[C@H]3CC[C@@H]2[C@H](N)C3)cc2nc(-c3cc4ccc(C5CCCN(C(=O)N6CCCC6)C5)nc4n3CC3CC3)c(C)n12 (stereo partly shown) [Example 518, [(1~{R},2~{R},4~{S})-2-amino-7-azabicyclo [2.2.1]heptan-7-yl]-[2-[1-(cyclopropylmethyl)-6-[1-(pyrrolidine-1-carbonyl)piperidin-3-yl]pyrrolo [2,3-b]pyridin-2-yl]-5-methoxy-3-methylimidazo [1,2-a]pyridin-7-yl] methanone] | 344

These reach a lower IC50. Values come first.

IC50 [nM] | SMILES
258 | CCc1ccc2cc(-c3nc4cc(C(=O)N5[C@H]6CC[C@@H]5[C@H](N)C6)cc(OC)n4c3C)n(CC(F)F)c2n1 [Example 502, [(1~{R},2~{R},4~{S})-2-amino-7-azabicyclo [2.2.1]heptan-7-yl]-[2-[1-(2,2-difluoroethyl)-6-ethylpyrrolo[2,3-b]pyridin-2-yl]-5-methoxy-3-methylimidazo [1,2-a]pyridin-7-yl] methanone]
179 | CCc1ccc2cc(-c3nc4cc(C(=O)N5[C@H]6CC[C@@H]5[C@H](N)C6)cc(OC)n4c3C)n(Cc3cccnc3)c2n1 [Example 513, [(1~{R},2~{R},4~{S})-2-amino-7-azabicyclo [2.2.1]heptan-7-yl]-[2-[6-ethyl-1-(pyridin-3-ylmethyl)pyrrolo [2,3-b]pyridin-2-yl]-5-methoxy-3-methylimidazo[1,2-a]pyridin-7-yl]methanone]
170 | CCc1ccc2cc(-c3nc4cc(C(=O)N5[C@H]6CC[C@@H]5[C@H](N)C6)cc(OC)n4c3C)n(CCC3CC3)c2n1 [Example 505, [(1~{R},2~{R},4~{S})-2-amino-7-azabicyclo [2.2.1]heptan-7-yl]-[2-[1-(2-cyclopropylethyl)-6-ethylpyrrolo[2,3-b]pyridin-2-yl]-5-methoxy-3-methylimidazo[1,2-a]pyridin-7-yl]methanone]
160 | CCc1ccc2cc(-c3nc4cc(C(=O)N5[C@H]6CC[C@@H]5[C@H](N)C6)cc(OC)n4c3C)n(CC(C)(F)F)c2n1 [Example 500, [(1~{R},2~{R},4~{S})-2-amino-7-azabicyclo [2.2.1]heptan-7-yl]-[2-[1-(2,2-difluoropropyl)-6-ethylpyrrolo[2,3-b]pyridin-2-yl]-5-methoxy-3-methylimidazo [1,2-a]pyridin-7-yl] methanone]
152 | CCc1ccc2cc(-c3nc4cc(C(=O)N5[C@H]6CC[C@@H]5[C@H](N)C6)cc(OC)n4c3C)n(Cc3ccncc3)c2n1 [Example 507, [(1~{R},2~{R},4~{S})-2-amino-7-azabicyclo [2.2.1]heptan-7-yl]-[2-[6-ethyl-1-(pyridin-4-ylmethyl)pyrrolo[2,3-b]pyridin-2-yl]-5-methoxy-3-methylimidazo[1,2-a]pyridin-7-yl]methanone]
132 | CCc1ccc2cc(-c3nc4cc(C(=O)N5[C@H]6CC[C@@H]5[C@H](N)C6)cc(OC)n4c3C)n(CC(F)(F)F)c2n1 [Example 504, [(1~{R},2~{R},4~{S})-2-amino-7-azabicyclo [2.2.1]heptan-7-yl]-[2-[6-ethyl-1-(2,2,2-trifluoroethyl)pyrrolo[2,3-b]pyridin-2-yl]-5-methoxy-3-methylimidazo[1,2-a]pyridin-7-yl]methanone]
125 | COc1cc(C(=O)N2[C@H]3CC[C@@H]2[C@H](N)C3)cc2nc(-c3cc4ccc(C5CCCCN5C(C)=O)nc4n3CC3CC3)c(C)n12 (stereo partly shown) [Example 515, 1-[2-[2-[7-[(1~{R},2~{R}, 4~{S})-2-amino-7-azabicyclo[2.2.1]heptane-7-carbonyl]-5-methoxy-3-methylimidazo[1,2-a]pyridin-2-yl]-1-(cyclopropylmethyl)pyrrolo[2,3-b]pyridin-6-yl]piperidin-1-yl] ethenone]
122 | COc1cc(C(=O)N2[C@H]3CC[C@@H]2[C@H](N)C3)cc2nc(-c3cc4ccc(C(C)CC(=O)NC(C)(C)C)nc4n3CC3CC3)c(C)n12 (stereo partly shown) [Example 521, 3-[2-[7-[(1~{R},2~{R}, 4~{S})-2-amino-7-azabicyclo[2.2.1]heptane-7-carbonyl]-5-methoxy-3-methylimidazo[1,2-a]pyridin-2-yl]-1-(cyclopropylmethyl)pyrrolo [2,3-b]pyridin-6-yl]-~{N}-~{tert}-butylbutanamide]
115 | CCc1ccc2cc(-c3nc4cc(C(=O)N5[C@H]6CC[C@@H]5[C@H](N)C6)cc(OC)n4c3C)n(CC3CC3C)c2n1 (stereo partly shown) [Example 503, [(1~{R},2~{R},4~{S})-2-amino-7-azabicyclo [2.2.1]heptan-7-yl]-[2-[6-ethyl-1-[(2-methylcyclopropyl)methyl]pyrrolo[2,3-b]pyridin-2-yl]-5-methoxy-3-methylimidazo[1,2-a]pyridin-7-yl]methanone]
101 | COc1cc(C(=O)N2[C@H]3CC[C@@H]2[C@H](N)C3)cc2nc(-c3cc4ccc(C(C)CC(=O)N5CC(F)(F)C5)nc4n3CC3CC3)c(C)n12 (stereo partly shown) [Example 519, 3-[2-[7-[(1~{R},2~{R}, 4~{S})-2-amino-7-azabicyclo[2.2.1]heptane-7-carbonyl]-5-methoxy-3-methylimidazo[1,2-a]pyridin-2-yl]-1-(cyclopropylmethyl)pyrrolo[2,3-b]pyridin-6-yl]-1-(3,3-difluoroazetidin-1-yl) butan-1-one]
73.8 | COc1cc(C(=O)N2[C@H]3CC[C@@H]2[C@H](N)C3)cc2nc(-c3cc4ccc(C(C)CC(N)=O)nc4n3CC3CC3)c(C)n12 (stereo partly shown) [Example 520, 3-[2-[7-[(1~{R},2~{R}, 4~{S})-2-amino-7-azabicyclo[2.2.1]heptane-7-carbonyl]-5-methoxy-3-methylimidazo[1,2-a]pyridin-2-yl]-1-(cyclopropylmethyl)pyrrolo[2,3-b]pyridin-6-yl]butanamide]
65.6 | COc1cc(C(=O)N2[C@H]3CC[C@@H]2[C@H](N)C3)cc2nc(-c3cc4ccc(C(C)Cc5nnc(C)o5)nc4n3CC3CC3)c(C)n12 (stereo partly shown) [Example 516, [(1~{R},2~{R},4~{S})-2-amino-7-azabicyclo [2.2.1]heptan-7-yl]-[2-[1-(cyclopropylmethyl)-6-[1-(5-methyl-1,3,4-oxadiazol-2-yl)propan-2-yl]pyrrolo[2,3-b]pyridin-2-yl]-5-methoxy-3-methylimidazo[1,2-a]pyridin-7-yl]methanone]
